In US20240408008A1, “AN IN-SITU GELLING ENEMA OF RIFAMYCIN FOR TREATING POUCHITIS AND DISTAL ULCERATIVE COLITIS” (COSMO TECHNOLOGIES LTD., priority 2021, published 2024):
Converted amounts (≈) assume the structure as drawn.

Assays:
Fusobacterium ulcerans = assay: MIC, broth dilution; type: cell-based; conditions: DSM19847; Fusobacterium ulcerans (DSM 19847); anaerobic
B. adolescentis = assay: MIC, broth dilution; type: cell-based; conditions: Bifidobacterium adolescentis, DSM20083; B. adolescentis (DSM 20083); anaerobic
[1] = Rifamycin concentration in colon homogenates and plasma, HPLC/MS-MS; type: in vivo; conditions: rats, single enema of formulation 7639
Protocol: Briefly, rats were anesthetized and treated by enema with formulation 7639 (2 mL/rat) into the rectum by using a catheter. All rats were sacrificed by CO2 inhalation at the predetermined time points. After a single enema administration of 7639 formulation, the concentration of Rifamycin in colon homogenates and plasma was determined by HPLC/MS-MS in samples collected at various time points.

DSS induced colitis = assay: Acute colitis induced by Dextran Sulfate Sodium (DSS); type: in vivo; conditions: mice, DSS 2%, enema 67 mg/kg
Protocol: In situ gel enema formulation batch 7663 (same formulation as batch 7639) in vivo efficacy was tested in a murine model of acute colitis induced by Dextran Sulfate Sodium (DSS). This animal model is perhaps the most widely used mouse model of colitis and employs DSS, a chemical colitogen with anticoagulant properties, to induce disease which closely resembles human UC. DSS induced intestinal inflammation results in damage to the epithelial monolayer lining the large intestine allowing the dissemination of proinflammatory intestinal contents (e.g. bacteria and their products) into underlying tissue.
(§1) For this study, a group of mice was treated by enema with Batch 7663 (indicated as CB0125 in the figures) (dose 45 mg/kg), one group was treated by enema with Placebo Batch 7679 as a comparator for 7663; a group was treated by enema with Rifamycin powder dissolved in water (67 mg/kg). One group of mice was treated orally PO with 5-ASA at the dose of 100 mg/Kg; this group was introduced as positive control. 5-ASA is the golden standard therapy for inflammatory bowel diseases, including UC, distal UC and proctitis. One group was treated by enema with the vehicle (H2O) only, as negative control.
Briefly DSS (2%) was dissolved in water (w/v) and given to mice in place of normal drinking water. DSS water was provided ad libitum for 5 days and was changed daily. This period was followed by a washout period of 5 days with water only. Mice were weighed daily and monitored for clinical status including hunching, mobility, soft stool and/or diarrhoea. At end of the study mice were sacrificed by CO2 inhalation. Immediately after euthanasia, the animals were laparatomyzed and intestine was exteriorized. The entire colon was isolated from the caecum to the anus, placed unstretched on a ruler and then measured and weighed after rinsing the lumen with saline. The weight was normalized to the colon length by calculating the ratio.
For histological analysis of colon samples, about 2 cm of the middle portion of isolated colon was fixed in a 10% formalin. Each fixed fragment was embedded in paraffin. The slides were stained with haematoxylin and eosin and assessed according to the histological score.

[2] = Rifamycin concentration in colon of DSS mice, HPLC MS/MS; type: in vivo; conditions: enema 67 mg/kg, all the tested time-points
Protocol: as §1
For PK analysis colon samples were cut into in pieces and washed 3 times with PBS to remove surface contaminants.

Parvimonas micra = assay: MIC, broth dilution; type: cell-based; conditions: DSM20468; Parvimonas micra (DSM 20468); anaerobic
Ruminococcus gnavus = assay: MIC, broth dilution; type: cell-based; conditions: Mediterraneibacter gnavus, DSM108212; Ruminococcus gnavus (DSM 108212); anaerobic
Prevotella intermedia = assay: MIC, broth dilution; type: cell-based; conditions: DSM20706; Prevotella intermedia (DSM 20706); anaerobic
K. pneumoniae = assay: MIC, broth dilution; type: cell-based; conditions: Klebsiella pneumoniae, aerobic
E. faecalis = assay: MIC, broth dilution; type: cell-based; conditions: Enterococcus faecalis, aerobic
Veillonella parvula = assay: MIC, broth dilution; type: cell-based; conditions: DSM2007; Veillonella parvula DSM 2007; anaerobic
Rothia dentocariosa = assay: MIC, broth dilution; type: cell-based; conditions: DSM43762; Rothia dentocariosa (DSM 43762); aerobic
[3] = tested on: selected bacteria involved in pouchitis pathogenesis; assay: MIC, broth dilution, whole panel; type: cell-based; conditions: Gram-positive and Gram-negative, aerobic and anaerobic bacteria of Table 3
Description: The Minimum Inhibitory Concentration (MIC) is defined as the lowest concentration expressed in mg/L (equivalent to μg/mL) of an antimicrobial ingredient or agent that is bacteriostatic (prevents the visible growth of bacteria). MICs are used to evaluate the antimicrobial efficacy of various compounds by measuring the effect of decreasing concentrations of antibiotic over a defined period in terms of inhibition of microbial population growth. MIC is generally regarded as the most basic laboratory measurement of the activity of an antimicrobial agent against an organism.
Antimicrobial characteristics of Rifamycin sodium salt was assessed on a panel of selected bacteria involved in pouchitis pathogenesis and a standard broth dilution method was used to determine the MIC of Rifamycin. Briefly, two-fold dilutions of the tested compounds were dispensed in 96 round bottom well plates, each dilution was processed in the liquid culture medium suitable for the tested bacterial species. Bacteria inocula were prepared by a suspension of the microbial strain in sterile water saline and adjusted to a concentration of 0.5McFarland standard corresponding to 1.5×10^8 CFU/ml. A final bacterial concentration of 0.5-1×10^5 CFU/ml was distributed in each well. […] MIC was recorded when there was visible growth in the positive growth control column (bacterial inoculum without test substance). […]

Bacteroides fragilis = assay: MIC, broth dilution; type: cell-based; conditions: anaerobic
Porphiromonas gingivalis = assay: MIC, broth dilution; type: cell-based; conditions: Porphiromonas gingivalis (DSM 20709); anaerobic

**Q.** What does the source list for CO[C@H]1/C=C/O[C@@]2(C)Oc3c(C)c(O)c4c(O)c(cc(O)c4c3C2=O)NC(=O)/C(C)=C\C=C\[C@H](C)[C@H](O)[C@@H](C)[C@@H](O)[C@@H](C)[C@H](OC(C)=O)[C@@H]1C [Rifamycin SV]?
**A.** MIC (Fusobacterium ulcerans): 16 µg/mL (≈ 22.9 µM); MIC (B. adolescentis): 1 µg/mL (≈ 1.43 µM); concentration at 6 h ([1]; rat, colon homogenate, other: enema into the rectum, 2 mL/rat, 6 hrs after administration): 123 ng/g; concentration in blood samples (LLOQ of the method) ([1]; 30 min., 1 h, 2 h, 4 h and 6 h): < 1 ng/mL; histological score (DSS induced colitis; compared to 7663): lower improvement; clinical score AUC (DSS induced colitis; compared to batch 7663): lower efficacy; cumulative stool score (DSS induced colitis; vs vehicle): significant improvement; Rifamycin concentration in the colon homogenate [2]: lower than that of the animals treated with formulation 7663; MIC (Parvimonas micra): < 0.3 µg/mL; MIC (Ruminococcus gnavus): < 0.03 µg/mL; MIC (Prevotella intermedia): < 0.3 µg/mL; MIC (K. pneumoniae; DSM16609, K. pneumoniae (DSM 16609)): > 64 µg/mL; MIC (K. pneumoniae; DSM25721, K. pneumoniae (DSM 25721)): 64 µg/mL (≈ 91.7 µM); MIC (E. faecalis; ATCC29212, E. faecalis (ATCC 29212)): 50 µg/mL (≈ 71.7 µM); MIC (E. faecalis; DSM2570, E. faecalis (DSM 2570)): 200 µg/mL (≈ 287 µM); MIC (E. faecalis; DSM2921, E. faecalis (DSM 2921)): 64 µg/mL (≈ 91.7 µM); MIC (E. faecalis; DSM2981, E. faecalis (DSM 2981)): 200 µg/mL (≈ 287 µM); MIC (E. faecalis; DSM6134, E. faecalis (DSM 6134)): 50 µg/mL (≈ 71.7 µM); MIC (E. faecalis; E. faecalis (6172818861)): 12.5 µg/mL (≈ 17.9 µM); MIC (E. faecalis; E. faecalis (C 46)): 12.5 µg/mL (≈ 17.9 µM); MIC (E. faecalis; E. faecalis (E 83)): 3.12 µg/mL (≈ 4.47 µM); MIC (Veillonella parvula): < 0.03 µg/mL; MIC (Rothia dentocariosa): < 0.03 µg/mL; antimicrobial activity in vitro [3]: powerful antimicrobial activity; MIC (Bacteroides fragilis; Bacteroides fragilis, DSM1396, B. fragilis (DSM 1396)): 0.39 µg/mL (≈ 0.559 µM); MIC (Bacteroides fragilis; Bacteroides fragilis, DSM9668, B. fragilis (DSM 9668)): 100 µg/mL (≈ 143 µM); MIC (Bacteroides fragilis; Bacteroides fragilis, DSM9669, B. fragilis (DSM 9669)): 100 µg/mL (≈ 143 µM); MIC (Bacteroides fragilis; Bacteroides fragilis, DSM9670, B. fragilis (DSM 9670)): 50 µg/mL (≈ 71.7 µM); MIC (Bacteroides fragilis; Bacteroides fragilis, DSM9671, B. fragilis (DSM 9671)): 50 µg/mL (≈ 71.7 µM); MIC (Bacteroides fragilis; DSM2151, Bacteroides fragilis (DSM 2151)): 0.78 µg/mL (≈ 1.12 µM); MIC (Porphiromonas gingivalis): < 0.3 µg/mL
